Reference: US20250333407A1, “Compounds and Their Use for Treatment of Hemoglobinopathies” (Bristol-Myers Squibb Company, priority 2024, published 2025)

Assays:
Type in all cases: cell-based
[1] = system: HbF; experiment: HbF HiBiT induction assay in HUDEP-2 cells; settings: HUDEP-2 cells with HiBiT tag in HBG1/2, 72 hours of treatment; area under the dose response curve, higher AUC = greater HbF induction
Experimental: HbF HiBiT induction assay. The HiBiT induction assay for HbF in HUDEP-2 cells was performed as described below. HUDEP-2 cells engineered to express a HiBiT tag in HBG1/2 were maintained at a density of 0.1-1×10^6 cells/ml in StemSpan SFEM II supplemented with 1% penicillin/streptomycin, hSCF (50 ng/mL), erythropoietin (EPO; 3 IU/mL), dexamethasone (DEX; 0.4 μg/mL), and doxycycline hyclate (DOX; 1 μg/mL). The cells were cultured in low adherence flasks, in a humidified incubator, set at 37° C. with 5% CO2. Cell counts and viability were measured by trypan blue exclusion using the Vi-CELL XR cell viability analyzer and the cell growth was consistently maintained in log phase.
Prior to the start of experiments, HbF HiBiT-tagged HUDEP-2 cells were transferred to a 50 mL conical and centrifuged at 500×g for 5 minutes, the supernatant removed, and the pellet washed in 5 mL of 1×PBS. The washed cells were centrifuged again at 500×g for 5 minutes and resuspended in IMDM containing; 1×glutamine, 1×penicillin/streptomycin, holo-transferrin (330 μg/mL), heparin (2 IU/mL), r-human insulin (10 μg/mL), EPO (3 IU/mL), 5% human plasma, hSCF (100 ng/mL) and DOX (1 μg/mL) to a final density of 0.3×10^6 cells/mL. Forty microliters of cell suspension were dispensed into 384-well Low Flange White Flat Bottom Polystyrene TC-treated Microplates containing pre-dispensed compounds, using a VIAFLO 384 liquid hander, and placed in a humidified incubator at 37° C. with 5% CO2. […] After 72 hours of treatment, 40 μL of Nano-Glo HiBiT Lytic Solution (prepared according to manufacturer's instructions) were dispensed into each well using a VIAFLO 384 liquid handler, and the plates were shaken for 20 seconds. Plates were incubated for 20 minutes at room temperature, and the luminescence was read as relative luminescent units using an EnVision plate reader.
Dose response curves were generated, and EC50, Ymax, and then area under the curve (AUC) values were calculated. HbF induction was measured using the calculated area under the curve (AUC) value, with higher AUC values indicative of greater HbF induction relative to lower AUC values.

[2] = target: T1, ZBTB7A (Homo sapiens, UniProt O95365+Q96SW2); experiment: HUDEP-2 ZBTB7A HiBiT degradation assay; settings: HiBiT-tagged ZBTB7A degradation in HUDEP-2 cells, 24 hours of treatment; read-out: ZBTB7A EC50
T1 construct: HUDEP-2 cells engineered to express a HiBiT tag in either the WIZ (Widely interspaced zinc finger) or ZBTB7A
T1 sequence (O95365 whole entry): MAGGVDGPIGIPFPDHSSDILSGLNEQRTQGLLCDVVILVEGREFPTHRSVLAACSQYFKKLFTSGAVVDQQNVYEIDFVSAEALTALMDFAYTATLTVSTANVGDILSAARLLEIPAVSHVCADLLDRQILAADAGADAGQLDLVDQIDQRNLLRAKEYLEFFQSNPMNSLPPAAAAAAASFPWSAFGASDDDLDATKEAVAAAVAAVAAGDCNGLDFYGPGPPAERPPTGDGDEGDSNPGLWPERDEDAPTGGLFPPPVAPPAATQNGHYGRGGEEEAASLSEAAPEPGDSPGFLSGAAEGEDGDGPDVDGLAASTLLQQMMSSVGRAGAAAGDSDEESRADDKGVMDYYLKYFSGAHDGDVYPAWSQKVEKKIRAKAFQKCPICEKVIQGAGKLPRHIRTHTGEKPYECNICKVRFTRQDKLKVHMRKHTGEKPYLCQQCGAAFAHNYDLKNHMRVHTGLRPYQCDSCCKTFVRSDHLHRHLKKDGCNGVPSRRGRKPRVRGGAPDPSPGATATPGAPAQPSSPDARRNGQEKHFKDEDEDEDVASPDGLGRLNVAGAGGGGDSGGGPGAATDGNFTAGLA
T1 sequence (Q96SW2 whole entry): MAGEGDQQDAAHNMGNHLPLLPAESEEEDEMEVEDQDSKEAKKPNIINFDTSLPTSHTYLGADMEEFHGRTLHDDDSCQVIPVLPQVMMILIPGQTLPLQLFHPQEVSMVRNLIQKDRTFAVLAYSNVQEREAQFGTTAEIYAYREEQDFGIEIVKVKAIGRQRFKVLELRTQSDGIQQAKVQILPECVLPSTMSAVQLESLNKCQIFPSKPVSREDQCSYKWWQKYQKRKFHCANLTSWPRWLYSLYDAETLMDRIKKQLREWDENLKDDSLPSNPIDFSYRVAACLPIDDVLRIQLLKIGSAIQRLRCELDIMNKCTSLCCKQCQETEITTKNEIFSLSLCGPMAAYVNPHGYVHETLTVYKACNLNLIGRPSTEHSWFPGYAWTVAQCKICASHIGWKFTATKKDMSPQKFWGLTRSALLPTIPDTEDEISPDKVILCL
T1 sequence (Q16531 whole entry partner): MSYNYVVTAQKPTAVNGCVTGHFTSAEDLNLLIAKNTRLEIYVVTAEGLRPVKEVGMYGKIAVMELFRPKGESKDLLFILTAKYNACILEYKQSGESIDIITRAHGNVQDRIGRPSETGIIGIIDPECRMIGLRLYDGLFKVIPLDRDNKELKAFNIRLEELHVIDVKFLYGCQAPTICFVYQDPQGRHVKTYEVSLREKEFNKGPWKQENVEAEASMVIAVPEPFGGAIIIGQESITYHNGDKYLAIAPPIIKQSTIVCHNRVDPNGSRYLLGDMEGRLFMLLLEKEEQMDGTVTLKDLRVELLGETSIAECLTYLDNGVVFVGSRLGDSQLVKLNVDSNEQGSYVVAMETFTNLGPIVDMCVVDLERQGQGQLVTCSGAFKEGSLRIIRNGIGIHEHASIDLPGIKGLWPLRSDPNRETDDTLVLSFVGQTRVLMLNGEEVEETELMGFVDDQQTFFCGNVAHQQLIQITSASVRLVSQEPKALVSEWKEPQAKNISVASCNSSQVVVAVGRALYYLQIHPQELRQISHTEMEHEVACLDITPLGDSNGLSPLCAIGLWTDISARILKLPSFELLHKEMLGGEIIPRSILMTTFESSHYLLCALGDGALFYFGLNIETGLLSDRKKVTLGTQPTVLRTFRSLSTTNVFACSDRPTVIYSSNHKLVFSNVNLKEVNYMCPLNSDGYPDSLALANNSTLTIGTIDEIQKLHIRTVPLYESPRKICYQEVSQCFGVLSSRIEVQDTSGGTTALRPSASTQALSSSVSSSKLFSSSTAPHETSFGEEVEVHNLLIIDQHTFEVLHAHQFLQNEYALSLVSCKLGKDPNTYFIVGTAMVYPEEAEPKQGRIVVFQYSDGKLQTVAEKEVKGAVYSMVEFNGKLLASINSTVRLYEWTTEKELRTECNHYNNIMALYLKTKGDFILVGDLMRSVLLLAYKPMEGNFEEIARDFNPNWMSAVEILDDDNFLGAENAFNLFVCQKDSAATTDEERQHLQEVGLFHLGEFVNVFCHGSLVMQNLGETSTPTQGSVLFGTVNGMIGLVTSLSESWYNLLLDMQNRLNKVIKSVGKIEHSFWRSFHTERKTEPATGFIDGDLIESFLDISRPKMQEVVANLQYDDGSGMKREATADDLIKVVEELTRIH
Experimental: (§1) WIZ Assay and ZBTB7A EC50 Assays. The HiBiT degradation assays for WIZ and ZBTB7A in HUDEP-2 cells were performed as described below. HUDEP-2 cells engineered to express a HiBiT tag in either the WIZ (Widely interspaced zinc finger) or ZBTB7A (Zinc Finger And BTB Domain Containing 7A) proteins were maintained in low attachment flasks in StemSpan SFEM II media supplemented with Penicillin-Streptomycin (50 U/mL), rhSCF (50 ng/mL), rhEPO (3 IU/mL), dexamethasone (0.4 μg/mL) and doxycycline (1 μg/mL). Prior to start of the assay, cell count and viability were measured by trypan blue exclusion using the Vi-cell XR cell viability analyzer.
For the HUDEP-2 ZBTB7A HiBiT assay, cell count and viability were measured by trypan blue exclusion using the Vi-cell XR cell viability analyzer and the cells were transferred to a 50 mL conical and centrifuged at 500 g for five minutes. Cells were resuspended in fresh IMDM media supplemented with L-Glutamine (1×), Penicillin-Streptomycin (50 U/mL), holo-transferrin (330 μg/mL), heparin (2 IU/mL), r-human Insulin (10 μg/mL), rhEPO (3 IU/mL), rhSCF (100 ng/mL)+Dox (1 μg/mL) and 5% human plasma in low attachment flasks, which were placed in a 37° C. incubator with 5% CO2. After 48 hours, cell count and viability were measured by trypan blue exclusion using the Vi-cell XR cell viability analyzer. The HUDEP-2 ZBTB7A cells were transferred to a 50 mL conical, centrifuged at 500 g for five minutes and resuspended at a density of 1.0×10^6 cells/ml in IMDM media supplemented with L-Glutamine (1×), Penicillin-Streptomycin (50 U/mL), holo-transferrin (330 μg/mL), heparin (2 IU/mL), r-human Insulin (10 μg/mL), rhEPO (3 IU/mL), rhSCF (100 ng/mL)+Dox (1 μg/mL) and 5% human plasma. Forty microliters of cell suspension was dispensed into 384-well Low Flange White Flat Bottom Polystyrene TC-treated Microplates containing pre-dispensed compounds, using a VIAFLO 384 liquid hander, and placed in a 37° C. incubator with 5% CO2. […] After 24 hours of treatment, 40 μL Nano-Glo HiBiT Lytic Detection System reagent was dispensed into each well using a VIAFLO 384 liquid hander. Plates were incubated for 25 minutes at room temperature and the luminescence was read as relative luminescent units using the EnVision plate reader. EC50 and Y-min values were calculated using curves calculated from dotmatics software after the normalization to the DMSO control of 10 different concentrations: 10, 3.33, 1.11, 0.37, 0.12, 0.04 0.0137, 0.0046, 0.0015 and […] respectively.

[3] = target: T2, WIZ (Homo sapiens, UniProt O95785+Q96SW2); experiment: HUDEP-2 WIZ HiBiT degradation assay; settings: HiBiT-tagged WIZ degradation in HUDEP-2 cells, 24 hours of treatment; read-out: WIZ EC50
T2 construct: HUDEP-2 cells engineered to express a HiBiT tag in either the WIZ (Widely interspaced zinc finger) or ZBTB7A
T2 sequence (O95785 whole entry): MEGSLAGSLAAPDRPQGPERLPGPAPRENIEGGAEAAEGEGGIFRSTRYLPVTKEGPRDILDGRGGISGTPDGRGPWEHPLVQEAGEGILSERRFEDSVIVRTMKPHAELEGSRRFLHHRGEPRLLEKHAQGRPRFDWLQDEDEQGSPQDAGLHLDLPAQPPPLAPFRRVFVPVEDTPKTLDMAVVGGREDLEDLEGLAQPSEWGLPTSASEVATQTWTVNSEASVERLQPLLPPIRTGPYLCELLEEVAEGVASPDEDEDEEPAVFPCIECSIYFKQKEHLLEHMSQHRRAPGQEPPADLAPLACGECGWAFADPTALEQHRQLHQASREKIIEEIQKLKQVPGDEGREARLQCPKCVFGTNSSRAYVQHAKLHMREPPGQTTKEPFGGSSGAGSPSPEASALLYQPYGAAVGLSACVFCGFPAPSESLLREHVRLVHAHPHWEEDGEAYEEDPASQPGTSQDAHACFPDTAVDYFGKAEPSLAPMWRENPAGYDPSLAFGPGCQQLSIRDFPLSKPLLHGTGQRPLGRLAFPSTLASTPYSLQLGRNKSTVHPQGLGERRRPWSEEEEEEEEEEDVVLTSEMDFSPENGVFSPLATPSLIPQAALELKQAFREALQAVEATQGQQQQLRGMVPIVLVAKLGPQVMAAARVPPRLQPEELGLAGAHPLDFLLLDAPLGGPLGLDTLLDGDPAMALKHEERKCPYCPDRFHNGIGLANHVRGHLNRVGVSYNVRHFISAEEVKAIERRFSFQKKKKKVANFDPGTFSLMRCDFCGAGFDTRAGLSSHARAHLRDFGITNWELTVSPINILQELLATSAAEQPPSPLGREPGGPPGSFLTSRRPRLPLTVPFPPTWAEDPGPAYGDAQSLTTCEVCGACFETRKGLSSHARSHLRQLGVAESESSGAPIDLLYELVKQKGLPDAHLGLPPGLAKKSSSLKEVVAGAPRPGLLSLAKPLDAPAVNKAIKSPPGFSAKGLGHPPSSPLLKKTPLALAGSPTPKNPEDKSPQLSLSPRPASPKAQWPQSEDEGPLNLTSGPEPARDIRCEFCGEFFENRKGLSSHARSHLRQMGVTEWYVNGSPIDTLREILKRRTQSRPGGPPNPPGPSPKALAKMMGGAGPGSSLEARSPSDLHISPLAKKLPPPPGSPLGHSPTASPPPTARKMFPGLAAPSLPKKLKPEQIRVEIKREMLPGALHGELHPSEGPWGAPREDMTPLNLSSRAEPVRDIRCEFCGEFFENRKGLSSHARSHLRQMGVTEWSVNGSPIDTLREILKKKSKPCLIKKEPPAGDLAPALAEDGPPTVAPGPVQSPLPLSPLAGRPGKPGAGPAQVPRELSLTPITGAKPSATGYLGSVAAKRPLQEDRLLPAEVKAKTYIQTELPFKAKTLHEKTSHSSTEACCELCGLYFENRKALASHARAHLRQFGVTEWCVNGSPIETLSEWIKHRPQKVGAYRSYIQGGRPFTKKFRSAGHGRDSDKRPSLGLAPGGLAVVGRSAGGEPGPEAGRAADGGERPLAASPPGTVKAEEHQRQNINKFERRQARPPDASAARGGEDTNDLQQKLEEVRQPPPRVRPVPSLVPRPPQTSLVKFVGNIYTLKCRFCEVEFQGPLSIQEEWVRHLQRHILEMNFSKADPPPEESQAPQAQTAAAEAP
T2 sequence (Q96SW2 whole entry): as the sequence (Q96SW2 whole entry) above
T2 sequence (Q16531 whole entry partner): as the sequence (Q16531 whole entry partner) above
Experimental: as §1
For the HUDEP-2 WIZ HiBiT assay, cells were transferred to a 50 mL conical and centrifuged at 500 g for five minutes. Cells were resuspended in fresh StemSpan SFEM II media supplemented with Penicillin-Streptomycin (50 U/mL), rhSCF (50 ng/mL), rhEPO (3 IU/mL), dexamethasone (0.4 μg/mL) and doxycycline (1 μg/mL) at a density of 1.0×10^6 cells/ml. Forty microliters of cell suspension was dispensed into 384-well Low Flange White Flat Bottom Polystyrene TC-treated Microplates containing pre-dispensed compounds, using a VIAFLO 384 liquid hander, and placed in a 37° C. incubator with 5% CO2. […] After 24 hours of treatment, 40 μL Nano-Glo HiBiT Lytic Detection System reagent was dispensed into each well using a VIAFLO 384 liquid hander. Plates were incubated for 25 minutes at room temperature and the luminescence was read as relative luminescent units using the EnVision plate reader. EC50 and Y-min values were calculated using curves calculated from dotmatics software after the normalization to the DMSO control of 10 different concentrations: 10, 3.33, 1.11, 0.37, 0.12, 0.04 0.0137, 0.0046, 0.0015 and […] respectively.

Row | Compound | HBF AUC [1] | DC50 [2] | DC50 [3]
1 | Cc1cc(-c2cc3c(cc2Nc2cccc4c2C(=O)N([C@H]2CCC(=O)NC2=O)C4=O)N(C)C(=O)[C@@H](C)O3)cc(C)n1 [Compound 24, 4-(((R)-7-(2,6-dimethylpyridin-4-yl)-2,4-dimethyl-3-oxo-3,4-dihydro-2H-benzo[b][1,4]oxazin-6-yl)amino)-2-((S)-2,6-dioxopiperidin-3-yl)isoindoline-1,3-dione] | +++ (+++ = AUC ≥ 150) | 26 nM | 14 nM
2 | CCN1C(=O)COc2cc(-c3ccnc(C)c3)c(Nc3cccc4c3C(=O)N([C@H]3CCC(=O)NC3=O)C4=O)cc21 [Compound 25, (S)-2-(2,6-dioxopiperidin-3-yl)-4-((4-ethyl-7-(2-methylpyridin-4-yl)-3-oxo-3,4-dihydro-2H-benzo[b][1,4]oxazin-6-yl)amino)isoindoline-1,3-dione] | + (+ = 15 ≤ AUC < 100) | 24 nM | 18 nM
3 | Cc1cc(-c2cc3c(cc2Nc2cccc4c2C(=O)N([C@H]2CCC(=O)NC2=O)C4=O)N(C2CC2)C(=O)CO3)ccn1 [Compound 26, (S)-4-((4-cyclopropyl-7-(2-methylpyridin-4-yl)-3-oxo-3,4-dihydro-2H-benzo[b][1,4]oxazin-6-yl)amino)-2-(2,6-dioxopiperidin-3-yl)isoindoline-1,3-dione] | ++ (++ = 100 ≤ AUC < 150) | 98 nM | 13 nM
4 | Cc1cc(-c2cc3c(cc2Nc2cccc4c2C(=O)N([C@H]2CCC(=O)NC2=O)C4=O)N(C)C(=O)[C@@H](C)O3)c(F)cn1 [Compound 27, 2-((S)-2,6-dioxopiperidin-3-yl)-4-(((R)-7-(5-fluoro-2-methylpyridin-4-yl)-2,4-dimethyl-3-oxo-3,4-dihydro-2H-benzo[b][1,4]oxazin-6-yl)amino)isoindoline-1,3-dione] | + (+ = 15 ≤ AUC < 100) | 11 nM | 6 nM
5 | COc1cc(-c2cc3c(cc2Nc2cccc4c2C(=O)N([C@H]2CCC(=O)NC2=O)C4=O)N(C)C(=O)CO3)c(F)cn1 [Compound 28, (S)-2-(2,6-dioxopiperidin-3-yl)-4-((7-(5-fluoro-2-methoxypyridin-4-yl)-4-methyl-3-oxo-3,4-dihydro-2H-benzo[b][1,4]oxazin-6-yl)amino)isoindoline-1,3-dione] | +++ (+++ = AUC ≥ 150) | 13 nM | 11 nM
6 | COc1cc(-c2cc3c(cc2Nc2cccc4c2C(=O)N([C@H]2CCC(=O)NC2=O)C4=O)N(C)C(=O)[C@H](C)O3)c(F)cn1 [Compound 29, 2-((S)-2,6-dioxopiperidin-3-yl)-4-(((S)-7-(5-fluoro-2-methoxypyridin-4-yl)-2,4-dimethyl-3-oxo-3,4-dihydro-2H-benzo[b][1,4]oxazin-6-yl)amino)isoindoline-1,3-dione] | + (+ = 15 ≤ AUC < 100) | 23 nM | 5 nM
7 | COc1cc(-c2cc3c(cc2Nc2cccc4c2C(=O)N([C@H]2CCC(=O)NC2=O)C4=O)N(C)C(=O)[C@@H](C)O3)c(F)cn1 [Compound 30, 2-((S)-2,6-dioxopiperidin-3-yl)-4-(((R)-7-(5-fluoro-2-methoxypyridin-4-yl)-2,4-dimethyl-3-oxo-3,4-dihydro-2H-benzo[b][1,4]oxazin-6-yl)amino)isoindoline-1,3-dione] | ++ (++ = 100 ≤ AUC < 150) | 19 nM | 11 nM
8 | CC(=O)N1CCC(c2cc3c(cc2Nc2cccc4c2C(=O)N([C@H]2CCC(=O)NC2=O)C4=O)N(C)C(=O)[C@H](C)O3)CC1 [Compound 31, 4-(((S)-7-(1-acetylpiperidin-4-yl)-2,4-dimethyl-3-oxo-3,4-dihydro-2H-benzo[b][1,4]oxazin-6-yl)amino)-2-((S)-2,6-dioxopiperidin-3-yl)isoindoline-1,3-dione] | +++ (+++ = AUC ≥ 150) | 35 nM | 6 nM
9 | CC(=O)N1CCC(c2cc3c(cc2Nc2cccc4c2C(=O)N([C@H]2CCC(=O)NC2=O)C4=O)N(C)C(=O)[C@@H](C)O3)CC1 [Compound 32, 4-(((R)-7-(1-acetylpiperidin-4-yl)-2,4-dimethyl-3-oxo-3,4-dihydro-2H-benzo[b][1,4]oxazin-6-yl)amino)-2-((S)-2,6-dioxopiperidin-3-yl)isoindoline-1,3-dione] | +++ (+++ = AUC ≥ 150) | 14 nM | 5 nM
10 | COc1cc(-c2cc3c(cc2Nc2cccc4c2C(=O)N([C@H]2CCC(=O)NC2=O)C4=O)N(C)C(=O)[C@@H](C)O3)ccn1 [Compound 33, 2-((S)-2,6-dioxopiperidin-3-yl)-4-(((R)-7-(2-methoxypyridin-4-yl)-2,4-dimethyl-3-oxo-3,4-dihydro-2H-benzo[b][1,4]oxazin-6-yl)amino)isoindoline-1,3-dione] | + (+ = 15 ≤ AUC < 100) | 24 nM | 21 nM
11 | COc1nccc(-c2cc3c(cc2Nc2cccc4c2C(=O)N([C@H]2CCC(=O)NC2=O)C4=O)N(C)C(=O)CO3)c1F [Compound 34, (S)-2-(2,6-dioxopiperidin-3-yl)-4-((7-(3-fluoro-2-methoxypyridin-4-yl)-4-methyl-3-oxo-3,4-dihydro-2H-benzo[b][1,4]oxazin-6-yl)amino)isoindoline-1,3-dione] | +++ (+++ = AUC ≥ 150) | 11 nM | 11 nM
